Test results: article PMC6325219, “Preclinical Characterization of NVR 3-778, a First-in-Class Capsid Assembly Modulator against Hepatitis B Virus” (Antimicrobial Agents and Chemotherapy, 2018)

What was measured:
β-actin mRNA = experiment: Host β-actin mRNA in PHH during de novo infection study; type: cell-based, human; settings: 11 days, highest concentration tested 30 μM
Procedure: Cryopreserved PHH (Life Technologies) were seeded at 40,000 cells/well 1 day before infection. The HBV inoculum, concentrated from the supernatants of HepG2.2.15 cells, was prepared at 200 genome equivalents/cell in PHH medium (DMEM containing 10% FBS and a supplement cocktail containing HEPES, L-proline, insulin epidermal growth factor, dexamethasone, and ascorbic acid-2-phosphate, as previously described) with 2% DMSO and 4% polyethylene glycol (PEG) 8000 (Sigma). Compounds were serially diluted in DMSO at 50-fold strength and added to PHH medium containing the HBV inoculum, prior to infecting the PHH. After overnight incubation, the infection mixtures were removed and the cells were replenished with PHH medium containing freshly diluted compounds. On day 5 and day 8 postinfection, the media containing the compounds were removed and the cells were replenished with PHH medium containing freshly diluted compounds. […] HBV DNA, HBsAg, and HBeAg were determined from the supernatants of infected PHH using bDNA assays (Affymetrix) and HBsAg or HBeAg chemiluminescence immunoassay kits (Autobio), as recommended by the manufacturers. Intracellular total HBV RNA mRNA and host mRNA levels were monitored by using the QuantiGene assays (Affymetrix) and probe sets that hybridized to the X region, which is common to all HBV transcripts, and the host β-actin mRNA, respectively.

[1] = Cell viability of HepG2.2.15 cells (ATP levels, CellTiter-Glo); type: cell-based; settings: human, HepG2.2.15 cells, ATP levels, CellTiter-Glo
Procedure: (§1) In combination studies, cells were treated with compounds either alone or in combination after combining the compounds in a checkerboard format. In studies examining the effect of human serum, serially diluted NVR 3-778 was added into cell culture medium containing 0% to 40% human serum (BioreclamationIVT). Cells were incubated with the compounds for 3 days, after which the medium was removed, fresh medium containing the compounds was added to the cells, and the cells were incubated for another 3 days prior to harvesting of the supernatants or cells for antiviral assays. To quantify intracellular encapsidated rcDNA or encapsidated pgRNA, cells were first solubilized using lysis buffer containing 1% NP-40 and 10 mM CaCl2. The cytoplasmic fraction was then treated with S7 nuclease (6 units) to remove nonencapsidated nucleic acids, after which the S7 nuclease was inactivated by the addition of EDTA (0.5 M). […] The levels of HBV DNA were determined by a bDNA assay as described above (Affymetrix). Supernatants or cell lysates containing HBV RNA were treated with proteinase K (2.5 µg) at 50°C for 40 min, transferred to a capture plate containing HBV RNA probe sets, and hybridized overnight at 55°C. Captured HBV RNA was measured by the addition of a chemiluminescent substrate using a QuantiGene assay (Affymetrix). […] At day 6, the CellTiter-Glo reagent was added to the cells and viability was determined according to the manufacturer’s protocol (Promega). Luminescence signals were measured at 0.2 s using a Victor X4 multimode plate reader (PerkinElmer).

[2] = Hepatocyte stability, mouse hepatocytes; type: in vitro ADME; settings: 120 min incubation
Procedure: Following in vitro incubation for 120 min with human, mouse, or dog hepatocytes, >85% of the NVR 3-778 remained intact. […] The fewest number of metabolites was found following incubation with human hepatocytes, where 92% of the NVR 3-778 remained after a 120-min incubation.

HBV = experiment: Effect of human serum on antiviral activity in HepG2.2.15 cells; type: cell-based, hepatitis B virus (GT D); settings: for EC50 / EC90: Hepatitis B virus, HepG2.2.15, 144 h, HepG2.2.15 cells, 6 days
Procedure: To determine the effect of human protein binding on NVR 3-778 antiviral activity, HepG2.2.15 cells were incubated with increasing concentrations of NVR 3-778 in the presence of 0% to 40% human serum.
as §1, with “(PerkinElmer). […]” for “(PerkinElmer).”
Figure S3. Effect of human serum on NVR 3-778 antiviral activities. HepG2.2.15 cells were incubated with increasing concentrations of NVR 3-778 for 6 days in the presence of 0% (●), 10% […]
HBV DNA concentrations were determined from supernatant and compared to untreated cells containing the corresponding concentration of human serum. Data points represent mean values from at least three independent antiviral studies, and standard deviations are shown as error bars.

[3] = 2% human serum as printed in the table (text: 20%) versus without human serum
[4] = 10% human serum versus without human serum
[5] = 0% human serum, supernatant HBV DNA
[6] = 2% human serum as printed in the table (text: 20%)
[7] = 10% human serum, supernatant HBV DNA
[8] = 40% human serum, supernatant HBV DNA

Row | Compound | CC50 (EC50), β-actin mRNA (β-actin mRNA) | CC90 (EC90 column), β-actin mRNA (β-actin mRNA) | CC50 at 6 days [1] | NVR 3-778 remaining intact [2] | EC50 fold shift (HBV; 0% human serum (reference)) | EC90 fold shift (HBV; 0% human serum (reference)) | EC50 fold shift (HBV; [3]) | EC90 fold shift (HBV; [3]) | EC50 fold shift (HBV; [4]) | EC90 fold shift (HBV; [4]) | EC90 fold shift (HBV; 40% human serum versus without human serum) | EC50 (HBV; [5]) | EC90 (HBV; [5]) | EC50 (HBV; [6]) | EC90 (HBV; [6]) | EC50 (HBV; [7]) | EC90 (HBV; [7]) | EC50 (HBV; [8]) | EC90 (HBV; [8])
1 | Nc1ccn([C@@H]2CS[C@H](CO)O2)c(=O)n1 [LMV, lamivudine, reference compound] | >30 µM | >30 µM | – | – | – | – | – | – | – | – | – | – | – | – | – | – | – | – | –
2 | O=C(Nc1cc(F)c(F)c(F)c1)c1ccc(F)c(S(=O)(=O)N2CCC(O)CC2)c1 [NVR 3-778] | – | – | 14.5 µM | > 85% | 1 | 1.0 | 9.3 | 10.3 | 4.5 | 4.5 | 15.2 | 0.4 ± 0.1 µM | 1.5 ± 0.41 µM | 3.7 ± 1 µM | 15.9 ± 6.3 µM | 1.8 ± 0.51 µM | 6.9 ± 0.9 µM | 6.3 ± 2 µM | 23.5 ± 11.6 µM
